From PubChem BioAssay AID1963854 (Molecular Pharmacology Branch, DTP, NCI, 2024)

System: 186277-243-T-J2-PDC complex spheroid viability
Assay: Anticancer human tumor 186277-243-T-J2-PDC patient-derived colon adenocarcinoma cell line growth inhibition [POLQ]
Details: for IC50: curve of first compound; for viability, T/C: stronger effect = lower value
Summary of the method: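 Patient-derived tumour cells were co-cultured with HUVEC and mesenchymal stem cells as multicellular spheroids at 37 °C. They were treated with POLQ inhibitors (novobiocin, ART-558, RP6685) alone or combined with other agents. Top concentrations were at or near clinical Cmax (otherwise 10 microM; SN-38 at 1 microM), decreasing in half-log steps.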

[1] = second compound 0.0316 µM, first compound 0.0316 µM
[2] = second compound 0.0316 µM, first compound 0.1 µM
[3] = second compound 0.0316 µM, first compound 0.316 µM
[4] = second compound 0.0316 µM, first compound 1 µM
[5] = second compound 0.0316 µM, first compound 3.16 µM
[6] = second compound 0.0316 µM, first compound 10 µM
[7] = second compound 0.1 µM, first compound 0.0316 µM
[8] = second compound 0.1 µM, first compound 0.1 µM
[9] = second compound 0.1 µM, first compound 0.316 µM
[10] = second compound 0.1 µM, first compound 1 µM
[11] = second compound 0.1 µM, first compound 3.16 µM
[12] = second compound 0.1 µM, first compound 10 µM
[13] = second compound 0.316 µM, first compound 0.0316 µM
[14] = second compound 0.316 µM, first compound 0.1 µM
[15] = second compound 0.316 µM, first compound 0.316 µM
[16] = second compound 0.316 µM, first compound 1 µM
[17] = second compound 0.316 µM, first compound 3.16 µM
[18] = second compound 0.316 µM, first compound 10 µM
[19] = second compound 1 µM, first compound 0.0316 µM
[20] = second compound 1 µM, first compound 0.1 µM
[21] = second compound 1 µM, first compound 0.316 µM
[22] = second compound 1 µM, first compound 1 µM
[23] = second compound 1 µM, first compound 3.16 µM
[24] = second compound 1 µM, first compound 10 µM
[25] = second compound 3.16 µM, first compound 0.0316 µM
[26] = second compound 3.16 µM, first compound 0.1 µM
[27] = second compound 3.16 µM, first compound 0.316 µM
[28] = second compound 3.16 µM, first compound 1 µM
[29] = second compound 3.16 µM, first compound 3.16 µM
[30] = second compound 3.16 µM, first compound 10 µM
[31] = second compound 10 µM, first compound 0.0316 µM
[32] = second compound 10 µM, first compound 0.1 µM
[33] = second compound 10 µM, first compound 0.316 µM
[34] = second compound 10 µM, first compound 1 µM
[35] = second compound 10 µM, first compound 3.16 µM
[36] = second compound 10 µM, first compound 10 µM
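Note: spheroids exposed to compounds for seven days.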
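Throughout, for viability, T/C: 100% = DMSO vehicle control viability.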

Compound `CC1COCCN1c1cc(-c2ccnn2C)c2ccnc(-c3ccn[nH]3)c2n1` (stereo unspecified) + COC1C(OC(N)=O)C(O)C(Oc2ccc3c(O)c(NC(=O)c4ccc(O)c(CC=C(C)C)c4)c(=O)oc3c2C)OC1(C)C has an IC50 (second compound 0.0316 µM) of 0.0426 µM, an IC50 (second compound 0.1 µM) of 0.0458 µM and an IC50 (second compound 0.316 µM) of 0.0456 µM. For the same compound, the IC50 (second compound 1 µM) was 0.0474 µM, the IC50 (second compound 3.16 µM) was 0.0428 µM and the IC50 (second compound 10 µM) was 0.0512 µM. The viability, T/C [1] was 63.9%, the viability, T/C [2] was 10.3% and the viability, T/C [3] was 4.76%. The viability, T/C [4] was 4.28%, the viability, T/C [5] was 3.3% and the viability, T/C [6] was 3.81%. For the same compound, the viability, T/C [7] was 68.6%, the viability, T/C [8] was 10.9% and the viability, T/C [9] was 4.88%. It also gave a viability, T/C [10] of 3.51%, a viability, T/C [11] of 2.82% and a viability, T/C [12] of 3.8%. The viability, T/C [13] was 67.6%, the viability, T/C [14] was 12.2% and the viability, T/C [15] was 4.58%. The viability, T/C [16] was 3.36%, the viability, T/C [17] was 2.79% and the viability, T/C [18] was 3.64%. The viability, T/C [19] was 71%, the viability, T/C [20] was 11.4% and the viability, T/C [21] was 5.31%. The viability, T/C [22] was 3.57%, the viability, T/C [23] was 3.29% and the viability, T/C [24] was 4.22%. It also gave a viability, T/C [25] of 63.9%, a viability, T/C [26] of 11.1% and a viability, T/C [27] of 4.98%. The viability, T/C [28] was 3.47%, the viability, T/C [29] was 4.1% and the viability, T/C [30] was 3.47%. For the same compound, the viability, T/C [31] was 77.8%, the viability, T/C [32] was 11.6% and the viability, T/C [33] was 5.41%. The viability, T/C [34] was 3.59%, the viability, T/C [35] was 4.37% and the viability, T/C [36] was 3.76%.

With `COc1cccc2c1C(=O)c1c(O)c3c(c(O)c1C2=O)CC(O)(C(=O)CO)CC3OC1CC(N)C(O)C(C)O1` (stereo unspecified) + Cc1cccc(N(C)C(=O)C2C(O)CCN2c2nc(C)cc(C(F)(F)F)c2C#N)c1 the IC50 (second compound 0.0316 µM) was 0.106 µM, the IC50 (second compound 0.1 µM) was 0.116 µM and the IC50 (second compound 0.316 µM) was 0.114 µM. For the same compound, the IC50 (second compound 1 µM) was 0.12 µM, the IC50 (second compound 3.16 µM) was 0.119 µM and the IC50 (second compound 10 µM) was 0.0766 µM. The viability, T/C [1] was 104%, the viability, T/C [2] was 52.1% and the viability, T/C [3] was 10.2%. It also gave a viability, T/C [4] of 0.23%, a viability, T/C [5] of 0.15% and a viability, T/C [6] of 0.39%. It also gave a viability, T/C [7] of 107%, a viability, T/C [8] of 55.6% and a viability, T/C [9] of 11.1%. The viability, T/C [10] was 0.24%, the viability, T/C [11] was 0.11% and the viability, T/C [12] was 0.45%. The viability, T/C [13] was 96.9%, the viability, T/C [14] was 55.2% and the viability, T/C [15] was 10.3%. The viability, T/C [16] was 0.56%, the viability, T/C [17] was 0.14% and the viability, T/C [18] was 0.43%. It also gave a viability, T/C [19] of 95.7%, a viability, T/C [20] of 57% and a viability, T/C [21] of 12%. It also gave a viability, T/C [22] of 0.45%, a viability, T/C [23] of 0.16% and a viability, T/C [24] of 0.7%. For the same compound, the viability, T/C [25] was 89.3%, the viability, T/C [26] was 57.4% and the viability, T/C [27] was 9.06%. It also gave a viability, T/C [28] of 0.16%, a viability, T/C [29] of 1.06% and a viability, T/C [30] of 0.34%. The viability, T/C [31] was 76.3%, the viability, T/C [32] was 42.1% and the viability, T/C [33] was 3.48%. The viability, T/C [34] was 0.3%, the viability, T/C [35] was 0.5% and the viability, T/C [36] was 0.36%.

`CC[C@@]1(O)C(=O)OCc2c1cc1n(c2=O)Cc2cc3c(CN(C)C)c(O)ccc3nc2-1` + Cc1cccc(N(C)C(=O)C2C(O)CCN2c2nc(C)cc(C(F)(F)F)c2C#N)c1 gave an IC50 (second compound 0.0316 µM) of 0.0933 µM, an IC50 (second compound 0.1 µM) of 0.0984 µM and an IC50 (second compound 0.316 µM) of 0.0936 µM. For the same compound, the IC50 (second compound 1 µM) was 0.086 µM, the IC50 (second compound 3.16 µM) was 0.0846 µM and the IC50 (second compound 10 µM) was 0.0616 µM. For the same compound, the viability, T/C (second compound 0.0316 µM, first compound 0.000316 µM) was 112%, the viability, T/C (second compound 0.0316 µM, first compound 0.001 µM) was 83.4% and the viability, T/C (second compound 0.0316 µM, first compound 0.00316 µM) was 90.6%. For the same compound, the viability, T/C (second compound 0.0316 µM, first compound 0.01 µM) was 104%, the viability, T/C [1] was 67% and the viability, T/C [2] was 48.9%. For the same compound, the viability, T/C (second compound 0.1 µM, first compound 0.000316 µM) was 102%, the viability, T/C (second compound 0.1 µM, first compound 0.001 µM) was 96.7% and the viability, T/C (second compound 0.1 µM, first compound 0.00316 µM) was 96%. It also gave a viability, T/C (second compound 0.1 µM, first compound 0.01 µM) of 103%, a viability, T/C [7] of 74.8% and a viability, T/C [8] of 49.6%. It also gave a viability, T/C (second compound 0.316 µM, first compound 0.000316 µM) of 83.1%, a viability, T/C (second compound 0.316 µM, first compound 0.001 µM) of 106% and a viability, T/C (second compound 0.316 µM, first compound 0.00316 µM) of 99.4%. For the same compound, the viability, T/C (second compound 0.316 µM, first compound 0.01 µM) was 118%, the viability, T/C [13] was 71.7% and the viability, T/C [14] was 48.7%. It also gave a viability, T/C (second compound 1 µM, first compound 0.000316 µM) of 105%, a viability, T/C (second compound 1 µM, first compound 0.001 µM) of 96.9% and a viability, T/C (second compound 1 µM, first compound 0.00316 µM) of 96.7%. For the same compound, the viability, T/C (second compound 1 µM, first compound 0.01 µM) was 114%, the viability, T/C [19] was 74% and the viability, T/C [20] was 46.4%. For the same compound, the viability, T/C (second compound 3.16 µM, first compound 0.000316 µM) was 102%, the viability, T/C (second compound 3.16 µM, first compound 0.001 µM) was 100% and the viability, T/C (second compound 3.16 µM, first compound 0.00316 µM) was 96.2%. It also gave a viability, T/C (second compound 3.16 µM, first compound 0.01 µM) of 115%, a viability, T/C [25] of 73.9% and a viability, T/C [26] of 45.9%. For the same compound, the viability, T/C (second compound 10 µM, first compound 0.000316 µM) was 115%, the viability, T/C (second compound 10 µM, first compound 0.001 µM) was 96.2% and the viability, T/C (second compound 10 µM, first compound 0.00316 µM) was 104%. It also gave a viability, T/C (second compound 10 µM, first compound 0.01 µM) of 87.5%, a viability, T/C [31] of 59.8% and a viability, T/C [32] of 42.6%.
